Assay results as given in publication PMC2811219 (The Journal of infectious diseases, 2010).
Read-outs that look alike come from different tables or passages of the source.

Assays:
MT-4 cells [1] = assay: Viability assay in MT-4 cell cultures; assay type: cell-based, human
CEM cells [2] = assay: CEM cell growth; assay type: cell-based, human; settings: read-out: IC50 (CEM), concentration that inhibit cell growth by 50%
MT-4 cells [3] = assay: MT-4 cell growth / proliferation; assay type: cell-based, human; settings: read-out: IC50 (MT-4), concentration that inhibit cell growth by 50%
CEM cells [4] = assay: in vitro; assay type: cell-based, human
HIV-1LAI.04 [5] = assay: Anti-HIV-1 activity in MT-4 cell cultures; assay type: cell-based; settings: MT-4 cells; for EC50: read-out: EC50 (MT-4), effective concentration that inhibits 50% of HIV-1 replication
HIV-1 = assay: Anti-HIV-1 activity in CEM cell cultures; assay type: cell-based; settings: for EC50: read-out: EC50 (CEM), effective concentration that inhibits 50% of HIV-1 replication, CEM cells
[6] = Viability assay in MT-4 cell cultures; assay type: cell-based, human; settings: human, MT-4 cells
HIV-2ROD = assay: Anti-HIV-2 activity in CEM cells; assay type: cell-based; settings: HIV-2ROD-infected CEM cells; data not shown
in vitro = assay type: cell-based, human; settings: human
[7] = tested on: HIV-1 ETH 2220, R5 (clade C); assay: p24 production in virus-infected PBMC, HIV-1 ETH 2220; assay type: cell-based; settings: read-out: EC50, ETH 2220
HSV-2 (G) = assay: HSV-2 replication in HIV-1/HSV-2 coinfected tonsillar tissue; assay type: cell-based; settings: 1μM, n=5
HIV-1 US 3, R5 (clade B) = assay: p24 production in virus-infected PBMC, HIV-1 US 3; assay type: cell-based; settings: read-out: EC50, US 3
HIV-1BaL = assay: HIV-1 replication in human cervicovaginal tissue ex vivo; assay type: cell-based
[8] = tested on: HIV-1 UG275, R5 (clade A); assay: p24 production in virus-infected PBMC, HIV-1 UG275; assay type: cell-based; settings: read-out: EC50, UG275
HIV-1 NL4.3 (X4) = assay: p24 production in virus-infected PBMC, HIV-1 NL4.3; assay type: cell-based; settings: read-out: EC50, NL4.3
HIV-1 BaL (R5) = assay: p24 production in virus-infected PBMC, HIV-1 BaL; assay type: cell-based; settings: read-out: EC50, BaL
PBMC = PBMC MTS viability staining; assay type: cell-based, human
[9] = tested on: HIV-1 UG 270, X4 (clade D); assay: p24 production in virus-infected PBMC, HIV-1 UG 270; assay type: cell-based; settings: read-out: EC50, UG 270
[10] = tested on: clinical ACV-resistant HSV-2 isolate; assay: ACV-resistant HSV-2 replication in human tonsillar tissue; assay type: cell-based; settings: variant without functional thymidine kinase, n=2
HSV-2 strain G = assay: HSV-2 replication in human tonsillar tissue; assay type: cell-based; settings: 1μM, day 12 post infection, n=4
[11] = tested on: HIV-1 ID12, R5 (clade A/E); assay: p24 production in virus-infected PBMC, HIV-1 ID12; assay type: cell-based; settings: read-out: EC50, ID12
HIV-1LAI.04 [12] = assay: HIV-1 replication in HIV-1/HSV-2 coinfected tonsillar tissue; assay type: cell-based; settings: 1μM, n=5
[13] = tested on: human tonsillar tissue T cells; assay type: cell-based
HIV-1LAI.04 [14] = assay: HIV-1 replication in human tonsillar tissue ex vivo; assay type: cell-based
HIV-1LAI.04 [15] = assay: Flow-cytometry of HIV-infected; assay type: cell-based; settings: tonsillar tissue, day 12 post infection; control 11.71 ± 3.87%; n=4

Compound | CC50 (MT-4 cells [1]) | IC50 (CEM cells [2]) | IC50 (MT-4 cells [3]) | CC50 (CEM cells [4]) | SI, selective index or ratio of CC50 (MT-4)/EC50 (HIV-1LAI.04 [5]) | EC50 (HIV-1LAI.04 [5]) | EC50 (HIV-1) | EC50 [7] | EC50 (HIV-1 US 3, R5 (clade B)) | EC50 [8] | EC50 (HIV-1 NL4.3 (X4)) | EC50 (HIV-1 BaL (R5)) | EC50 [9] | EC50 [11] | other results
CCOC(=O)[C@H](C)NP(=O)(OCCOCn1cnc2c(=O)[nH]c(N)nc21)Oc1cccc2ccccc12 (stereo partly shown) [Cf2676] | > 150 µM | 32 ± 7.8 µM | 12 ± 5.3 µM | > 150 µM | > 88 | 1.7 ± 0.8 µM | 12 ± 9.8 µM |  |  |  |  |  |  |  | 
Nc1nc2c(ncn2COCCO)c(=O)[nH]1 [ACV, acyclovir, reference compound] |  |  |  |  |  |  |  |  |  |  |  |  |  |  | CC50 [6]: > 150 µM; suppression of viral replication (HIV-2ROD): did not efficiently suppress viral replication; CC50 (in vitro): > 150 µM; suppression of viral replication (HIV-1; HIV-1IIIB-infected CEM cells, data not shown): did not efficiently suppress viral replication
C[C@H](NP(=O)(OCCOCn1cnc2c(=O)[nH]c(N)nc21)Oc1ccccc1)C(=O)OCc1ccccc1 (stereo partly shown) [Cf2648] |  | 33 ± 7.1 µM | 34 ± 11 µM | > 150 µM | > 26 | 5.7 ± 1.6 µM | 6.4 ± 5.8 µM | 19 ± 14 µM | 28 ± 12 µM | 25 ± 10 µM | 13 ± 3.8 µM | 6.6 ± 1.4 µM | 55 ± 40 µM | 16 ± 15 µM | inhibition of HSV-2 replication in HIV-1/HSV-2 coinfected lymphoid tissue (HSV-2 (G)): 99.6 ± 0.2%; inhibition of HIV-1 replication, drug removed on day 3 post-infection (HIV-1BaL; cervicovaginal tissue, 1μM, not replenished, n=4): 57.1 ± 16.0%; inhibition of HIV replication, drug replenished at each medium change (HIV-1BaL; cervicovaginal tissue, 1μM, treated overnight then infected with HIV-1BaL, n=2): 100%; inhibition of HIV replication on day 12 post-infection, 3-day incubation followed by drug removal (HIV-1BaL; cervicovaginal tissue, 5μM, n=3): 90.3 ± 9.2%; CC50 (PBMC; read-out: CC50, 50% cytostatic concentration, PBMC, MTS viability staining method): 319 µM; inhibition of replication of ACV-resistant HSV-2 variant [10]: 94.9 ± 5.1%; suppression of HSV-2 replication (HSV-2 strain G): 99.6 ± 0.3%; inhibition of HIV replication in HIV-1/HSV-2 coinfected lymphoid tissue (HIV-1LAI.04 [12]): 81.1 ± 5.9%
CC(C)OC(=O)[C@H](C)NP(=O)(OCCOCn1cnc2c(=O)[nH]c(N)nc21)Oc1cccc2ccccc12 (stereo partly shown) [Cf2681] | > 150 µM | 36 ± 15 µM | 73 µM | > 150 µM | > 28 | 5.4 µM | 6.2 ± 5.4 µM |  |  |  |  |  |  |  | effect on numbers of CD4+ T cells and subsets in treated tissues [13]: did not affect the numbers of these cells
COC(=O)[C@H](C)NP(=O)(OCCOCn1cnc2c(=O)[nH]c(N)nc21)Oc1cccc2ccccc12 (stereo partly shown) [Cf2649] | > 150 µM | 57 ± 45 µM | 19 ± 3.2 µM | > 150 µM | > 32 | 4.7 ± 2.1 µM |  | 6.8 ± 3.9 µM | 4.9 ± 6.1 µM | 16 ± 11 µM | 11 ± 3.1 µM | 5.2 ± 2.4 µM | 10 ± 12 µM | 53 ± 4.4 µM | suppression of HIV-1BAL replication in cervicovaginal tissue (HIV-1BaL; 1 μM for 12 days, relative to donor-matched infected tissues, n=4): 75.8 ± 10.4%; suppression of HIV replication in tonsillar tissue (HIV-1LAI.04 [14]; 1 μM): completely suppresses HIV replication; inhibition of HIV-1 replication, treatment started 2 days post-infection (HIV-1LAI.04 [14]; tonsillar tissue, 1μM, n=3): 94.4 ± 5.5%; inhibition of HIV-1 replication, treatment started 4 days post-infection (HIV-1LAI.04 [14]; tonsillar tissue, 1μM, n=3): 90.2 ± 9.8%; inhibition of HIV-1 replication, treatment started 6 days post-infection (HIV-1LAI.04 [14]; tonsillar tissue, 1μM, n=3): 54.1 ± 13.5%; inhibition of HIV-1 replication, treatment started simultaneously with infection (HIV-1LAI.04 [14]; tonsillar tissue, 1μM, n=3): 96.9 ± 3%; CC50 (PBMC): 352 µM; fraction of CD8- T cells HIV-infected (p24+) (HIV-1LAI.04 [15]): 3.16 ± 1.63%
